These results are taken from ChEMBL document CHEMBL1152842, “Synthesis, Raman, FT-IR, NMR spectroscopic data and antimicrobial activity of mixed aza-oxo-thia macrocyclic compounds” (2009).

Common to all, as to type: functional
The subject of experiment [1] is Mycolicibacterium smegmatis. Description: Antibacterial activity against Mycobacterium smegmatis CCM 2067 at 5 ug after 24 hrs by disk diffusion method. The conditions noted are these: CCM 2067, 24 h, read-out: IZ. In general terms: In agar diffusion tests the substance spreads into inoculated agar from a disc or well.
Experiment [2] relates to Proteus vulgaris. Put plainly: Antibacterial activity against Proteus vulgaris ATCC 8427 at 5 ug after 24 hrs by disk diffusion method. The conditions noted are these: ATCC 8427, 24 h, read-out: IZ.
Experiment [3] has as its system Micrococcus luteus. Description: Antibacterial activity against Micrococcus luteus La 2971 at 5 ug after 24 hrs by disk diffusion method. The conditions noted are these: read-out: IZ.
Experiment [4] relates to Listeria monocytogenes. Description: Antibacterial activity against Listeria monocytogenes ATCC 15313 at 5 ug after 24 hrs by disk diffusion method. The conditions noted are these: ATCC 15313, 24 h, read-out: IZ.
The subject of experiment [5] is Bacillus cereus. Put plainly: Antibacterial activity against Bacillus cereus ATCC 7064 at 5 ug after 24 hrs by disk diffusion method. The conditions noted are these: ATCC 7064, 24 h, read-out: IZ.
Experiment [6] has as its system Pseudomonas aeruginosa. Description: Antibacterial activity against Pseudomonas aeruginosa ATCC 27853 at 5 ug after 24 hrs by disk diffusion method. The conditions noted are these: ATCC 27853, 24 h, read-out: IZ.
For experiment [7], the system named is Escherichia coli. Description: Antibacterial activity against Escherichia coli ATCC 11230 at 5 ug after 24 hrs by disk diffusion method. The conditions noted are these: ATCC 11230, 24 h, read-out: IZ.
The test system of experiment [8] is Klebsiella pneumoniae. Description: Antibacterial activity against Klebsiella pneumoniae UC57 at 5 ug after 24 hrs by disk diffusion method. The conditions noted are these: read-out: IZ.
Experiment [9] concerns Staphylococcus aureus. Description: Antibacterial activity against Staphylococcus aureus ATCC 6538 at 5 ug after 24 hrs by disk diffusion method. The conditions noted are these: ATCC 6538, 24 h, read-out: IZ.
Experiment [10] has as its system Hanseniaspora guilliermondii. Put plainly: Antifungal activity against Hanseniaspora guilliermondii DSM 3432 at 10 ug after 72 hrs by disk diffusion method. The conditions noted are these: DSM 3432, 72 h, read-out: IZ.
The subject of experiment [11] is Kluyveromyces marxianus. Description: Antifungal activity against Kluyveromyces fragilis NRRL 2415 at 10 ug after 72 hrs by disk diffusion method. The conditions noted are these: NRRL 2415, 72 h, read-out: IZ.
The test system of experiment [12] is Candida albicans. Description: Antifungal activity against Candida albicans ATCC 10231 at 10 ug after 72 hrs by disk diffusion method. The conditions noted are these: ATCC 10231, 72 h, read-out: IZ.
In experiment [13] the test system is Rhodotorula mucilaginosa. Put plainly: Antifungal activity against Rhodotorula rubra DSM 70403 at 10 ug after 72 hrs by disk diffusion method. The conditions noted are these: DSM 70403, 72 h, read-out: IZ.
The test system of experiment [14] is Debaryomyces hansenii. Put plainly: Antifungal activity against Debaryomyces hansenii DSM 70238 at 10 ug after 72 hrs by disk diffusion method. The conditions noted are these: DSM 70238, 72 h, read-out: IZ.
Experiment [15] deals with Micrococcus luteus. Put plainly: Antibacterial activity against Micrococcus luteus La 2971 at 30 ug after 24 hrs by disk diffusion method. The conditions noted are these: read-out: IZ.
Experiment [16] concerns Pseudomonas aeruginosa. Put plainly: Antibacterial activity against Pseudomonas aeruginosa ATCC 27853 at 30 ug after 24 hrs by disk diffusion method. The conditions noted are these: ATCC 27853, 24 h, read-out: IZ.
Experiment [17] concerns Escherichia coli. Put plainly: Antibacterial activity against Escherichia coli ATCC 11230 at 30 ug after 24 hrs by disk diffusion method. The conditions noted are these: ATCC 11230, 24 h, read-out: IZ.
In experiment [18] the test system is Klebsiella pneumoniae. Description: Antibacterial activity against Klebsiella pneumoniae UC57 at 30 ug after 24 hrs by disk diffusion method. The conditions noted are these: read-out: IZ.
Experiment [19] deals with Staphylococcus aureus. Put plainly: Antibacterial activity against Staphylococcus aureus ATCC 6538 at 30 ug after 24 hrs by disk diffusion method. The conditions noted are these: ATCC 6538, 24 h, read-out: IZ.
Experiment [20] concerns Listeria monocytogenes. Put plainly: Antibacterial activity against Listeria monocytogenes ATCC 15313 at 30 ug after 24 hrs by disk diffusion method. The conditions noted are these: ATCC 15313, 24 h, read-out: IZ.
Experiment [21] deals with Proteus vulgaris. Put plainly: Antibacterial activity against Proteus vulgaris ATCC 8427 at 30 ug after 24 hrs by disk diffusion method. The conditions noted are these: ATCC 8427, 24 h, read-out: IZ.
Experiment [22] concerns Mycolicibacterium smegmatis. Put plainly: Antibacterial activity against Mycobacterium smegmatis CCM 2067 at 30 ug after 24 hrs by disk diffusion method. The conditions noted are these: CCM 2067, 24 h, read-out: IZ.
Experiment [23] concerns Bacillus cereus. Description: Antibacterial activity against Bacillus cereus ATCC 7064 at 30 ug after 24 hrs by disk diffusion method. The conditions noted are these: ATCC 7064, 24 h, read-out: IZ.
In experiment [24] the test system is Debaryomyces hansenii. Put plainly: Antifungal activity against Debaryomyces hansenii DSM 70238 at 1 ug after 72 hrs by disk diffusion method. The conditions noted are these: DSM 70238, 72 h, read-out: IZ.
Experiment [25] relates to Kluyveromyces marxianus. Description: Antifungal activity against Kluyveromyces fragilis NRRL 2415 at 1 ug after 72 hrs by disk diffusion method. The conditions noted are these: NRRL 2415, 72 h, read-out: IZ.
In experiment [26] the test system is Candida albicans. Put plainly: Antifungal activity against Candida albicans ATCC 10231 at 1 ug after 72 hrs by disk diffusion method. The conditions noted are these: ATCC 10231, 72 h, read-out: IZ.
Experiment [27] concerns Hanseniaspora guilliermondii. Put plainly: Antifungal activity against Hanseniaspora guilliermondii DSM 3432 at 1 ug after 72 hrs by disk diffusion method. The conditions noted are these: DSM 3432, 72 h, read-out: IZ.
Experiment [28] relates to Rhodotorula mucilaginosa. Put plainly: Antifungal activity against Rhodotorula rubra DSM 70403 at 1 ug after 72 hrs by disk diffusion method. The conditions noted are these: DSM 70403, 72 h, read-out: IZ.

`CC1COc2c(N3CCN(C)CC3)c(F)cc3c(=O)c(C(=O)O)cn1c23` (stereo not drawn) [OFLOXACIN]: the zone of inhibition at 5 µg/disc in experiment [1] worked out at 32 mm; in experiment [2], 28 mm; in [3], 44 mm; in experiment [4], 30 mm; in experiment [5], 28 mm; in [6] it was 30 mm. Also, the zone of inhibition at 5 µg/disc in experiment [7] was found to be 30 mm; in experiment [8], 28 mm; in experiment [9], 24 mm.
Consider `Clc1ccccc1C(c1ccccc1)(c1ccccc1)n1ccnc1` [CLOTRIMAZOLE], for which the zone of inhibition at 10 µg/disc in experiment [10] amounted to 22 mm; in [11], 16 mm; in [12], 18 mm; in experiment [13], 15 mm; in [14], 18 mm.
Consider `CN(C)[C@@H]1C(O)=C(C(N)=O)C(=O)[C@@]2(O)C(O)=C3C(=O)c4c(O)cccc4[C@@](C)(O)[C@H]3C[C@@H]12` [TETRACYCLINE], for which the zone of inhibition at 30 µg/disc is 34 mm in [15]; 25 mm in [16]; 28 mm in experiment [17]; 30 mm in [18]; 26 mm in [19]; 28 mm in experiment [20]. For the same molecule, the values for the zone of inhibition at 30 µg/disc in experiment [21], in experiment [22] and in experiment [23] were 22 mm, 24 mm and 26 mm, respectively.
Regarding `CC(=O)N1CCN(c2ccc(OCC3COC(Cn4ccnc4)(c4ccc(Cl)cc4Cl)O3)cc2)CC1` (stereo not drawn) [KETOCONAZOLE], the zone of inhibition at 1 µg/disc was 14 mm in [24]; 22 mm in experiment [25]; 16 mm in experiment [26]; 24 mm in [27]; 21 mm in [28].
